Assay results from US9926297B2, “Bicyclic AZA compounds as muscarinic M1 receptor and/or M4 receptor agonists” (Heptares Therapeutics Limited, priority 2014, dated 2018).

Key:
[1] = target: T1, human muscarinic M4 receptor (Homo sapiens, UniProt P08173); experiment: Alphascreen Surefire phospho-ERK1/2 functional assay, M4; format: cell-based; settings: for EC50: phospho-ERK1/2, * = variable results, read-out: pEC50 M4 (converted); for Emax: CHO, read-out: % Emax cf. ACh, M4, CHO cells stably expressing human M4
T1 construct: expressed in transfected cells
T1 sequence (P08173 1-479): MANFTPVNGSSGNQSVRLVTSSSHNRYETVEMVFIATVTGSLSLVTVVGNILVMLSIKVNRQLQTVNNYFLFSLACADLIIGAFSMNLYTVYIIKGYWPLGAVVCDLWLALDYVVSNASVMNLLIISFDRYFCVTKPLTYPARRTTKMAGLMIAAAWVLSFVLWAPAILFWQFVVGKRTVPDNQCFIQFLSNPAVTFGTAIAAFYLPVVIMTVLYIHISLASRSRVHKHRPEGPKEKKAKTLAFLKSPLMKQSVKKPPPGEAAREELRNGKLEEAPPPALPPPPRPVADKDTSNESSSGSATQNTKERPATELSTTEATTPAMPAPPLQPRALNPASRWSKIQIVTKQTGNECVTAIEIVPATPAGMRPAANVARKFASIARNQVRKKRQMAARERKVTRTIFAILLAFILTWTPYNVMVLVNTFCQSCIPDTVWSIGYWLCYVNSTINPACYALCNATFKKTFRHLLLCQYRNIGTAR

[2] = target: T2, human muscarinic M2 receptor (Homo sapiens, UniProt P08172); experiment: Alphascreen Surefire phospho-ERK1/2 functional assay, M2; settings: for Emax: CHO, read-out: % Emax cf. ACh, M2, CHO cells stably expressing human M2
T2 sequence (P08172 1-466): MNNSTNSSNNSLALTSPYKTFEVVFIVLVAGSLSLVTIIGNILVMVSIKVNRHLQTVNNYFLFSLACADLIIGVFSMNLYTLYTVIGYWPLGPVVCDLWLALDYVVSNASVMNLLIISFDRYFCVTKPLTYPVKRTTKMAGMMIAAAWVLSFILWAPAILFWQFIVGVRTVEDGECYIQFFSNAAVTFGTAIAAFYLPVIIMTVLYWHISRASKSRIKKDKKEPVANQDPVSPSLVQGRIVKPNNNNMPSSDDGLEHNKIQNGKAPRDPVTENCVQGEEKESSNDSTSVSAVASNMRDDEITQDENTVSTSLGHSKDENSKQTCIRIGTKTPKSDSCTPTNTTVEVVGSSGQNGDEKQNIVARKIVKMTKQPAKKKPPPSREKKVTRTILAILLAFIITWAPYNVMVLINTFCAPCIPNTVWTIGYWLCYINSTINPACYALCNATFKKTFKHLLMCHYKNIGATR

[3] = target: human muscarinic M3 receptor (Homo sapiens, UniProt P20309); experiment: Alphascreen Surefire phospho-ERK1/2 functional assay, M3; settings: for Emax: CHO, read-out: % Emax cf. ACh, M3, CHO cells stably expressing human M3; for Emax / % Emax cf. ACh, M3: relative to ACh; for EC50: pEC50 M3, CHO cells stably expressing human M3
[4] = target: T3, human muscarinic M1 receptor (Homo sapiens, UniProt P11229); experiment: Alphascreen Surefire phospho-ERK1/2 functional assay, M1; format: cell-based; settings: for EC50: phospho-ERK1/2, * = variable results, read-out: pEC50 M1 (converted); for Emax: CHO, read-out: % Emax cf. ACh, M1, CHO cells stably expressing human M1
T3 sequence (P11229 1-460): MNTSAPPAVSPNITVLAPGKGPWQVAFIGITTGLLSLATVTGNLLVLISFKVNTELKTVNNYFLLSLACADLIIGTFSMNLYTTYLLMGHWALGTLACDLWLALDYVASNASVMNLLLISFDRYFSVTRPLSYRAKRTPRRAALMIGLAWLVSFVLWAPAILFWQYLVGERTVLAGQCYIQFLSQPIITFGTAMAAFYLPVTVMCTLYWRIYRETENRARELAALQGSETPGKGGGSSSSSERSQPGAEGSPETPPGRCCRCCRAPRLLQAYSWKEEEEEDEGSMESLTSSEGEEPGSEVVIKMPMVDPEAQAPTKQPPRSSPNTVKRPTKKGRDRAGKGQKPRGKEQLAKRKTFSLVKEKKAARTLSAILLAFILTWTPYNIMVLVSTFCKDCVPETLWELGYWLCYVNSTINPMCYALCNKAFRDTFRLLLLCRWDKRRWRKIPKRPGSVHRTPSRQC
Procedure: CHO cells stably expressing the human muscarinic M1, M2, M3 or M4 receptor were plated (25K/well) onto 96-well tissue culture plates in MEM-alpha+10% dialysed FBS. Once adhered, cells were serum-starved overnight. Agonist stimulation was performed by the addition of 5 μL agonist to the cells for 5 min (37° C.). Media was removed and 50 μL of lysis buffer added. After 15 min, a 4 μL sample was transferred to 384-well plate and 7 μL of detection mixture added. Plates were incubated for 2 h with gentle agitation in the dark and then read on a PHERAstar plate reader.
pEC50 and Emax figures were calculated from the resulting data for each receptor subtype.

[5] = CHO cells stably expressing human M4
[6] = phospho-ERK1/2, * = variable results
[7] = CHO cells stably expressing human M1
[8] = CHO cells stably expressing human M3

Chain of human muscarinic M3 receptor (P20309 whole entry): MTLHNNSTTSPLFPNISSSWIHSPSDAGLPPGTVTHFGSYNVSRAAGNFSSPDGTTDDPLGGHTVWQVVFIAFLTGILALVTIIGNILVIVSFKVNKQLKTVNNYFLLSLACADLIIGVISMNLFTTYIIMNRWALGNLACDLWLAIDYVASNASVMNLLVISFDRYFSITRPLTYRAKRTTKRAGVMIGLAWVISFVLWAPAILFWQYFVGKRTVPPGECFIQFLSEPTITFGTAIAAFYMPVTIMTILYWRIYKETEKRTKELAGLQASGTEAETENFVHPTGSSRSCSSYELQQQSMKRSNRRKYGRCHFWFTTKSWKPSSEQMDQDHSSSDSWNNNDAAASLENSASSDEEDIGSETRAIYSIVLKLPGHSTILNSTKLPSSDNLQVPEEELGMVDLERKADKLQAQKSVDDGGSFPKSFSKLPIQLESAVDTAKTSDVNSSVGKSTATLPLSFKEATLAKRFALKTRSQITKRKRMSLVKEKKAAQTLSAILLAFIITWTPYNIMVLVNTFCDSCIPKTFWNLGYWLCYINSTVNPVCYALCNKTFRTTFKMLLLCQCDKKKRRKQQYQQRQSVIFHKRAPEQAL

| SMILES | EC50 [1, 5] [nM] | Emax ([1]; relative to ACh) [%] | EC50 [2] [nM] | Emax ([2]; relative to ACh) [%] | Emax [3] [%] | EC50 [3, 6] [nM] | EC50 [4, 7] [nM] | Emax ([4]; relative to ACh) [%] | % Emax cf. ACh, M3 [3, 8] [%] | % Emax cf. ACh, M4 ([1]; CHO cells stably expressing human M4, relative to ACh) [%] | pEC50 M2 ([2]; CHO cells stably expressing human M2, phospho-ERK1/2, * = variable results) | % Emax cf. ACh, M2 ([2]; CHO cells stably expressing human M2, relative to ACh) [%] | pEC50 M3 ([3]; CHO cells stably expressing human M3, phospho-ERK1/2, * = variable results) | % Emax cf. ACh, M1 ([4]; CHO cells stably expressing human M1, relative to ACh) [%] |
| --- | --- | --- | --- | --- | --- | --- | --- | --- | --- | --- | --- | --- | --- | --- |
| CCOC(=O)N1CCC2(CC(N3CCC([C@@H]4CCCN4Cc4ccccc4)CC3)C2)C1 (single isomer, unassigned) [2-74 Isomer 2] | 79.4 | 54 | > 20000 | 16 | 8 | > 20000 | > 20000 | 18 |  |  |  |  |  |  |
| CCOC(=O)N1CCC2(CC(N3CCC([C@@H]4CCCN4C(=S)NC)CC3)C2)C1 (single isomer, unassigned) [2-75 Isomer 2] | 2.51 | 109 | > 20000 | 6 | 4 | > 20000 | 316 | 80 |  |  |  |  |  |  |
| CCOC(=O)N1CCC2(CC(N3CCC(C4c5ccccc5CN4C(=O)NC)CC3)C2)C1 (single isomer, unassigned) [2-76 Isomer 1, ethyl 2-(4-(2-(methylcarbamoyl)-isoindolin-1-yl)piperidin-1-yl)-6-azaspiro[3.4]octane-6-carboxylate] | 39.8 | 114 | > 20000 | 10 |  | > 20000 | 126 | 82 | 35 |  |  |  |  |  |
| CCOC(=O)N1CCC2(CC(N3CCC(C4c5ccccc5CN4C(=O)NC)CC3)C2)C1 (single isomer, unassigned) [2-76 Isomer 2, ethyl 2-(4-(2-(methylcarbamoyl)-isoindolin-1-yl)piperidin-1-yl)-6-azaspiro[3.4]octane-6-carboxylate] | 12.6 |  |  |  |  |  | 50.1 |  | 14 | 107 | < 4.7 | 16 | < 4.7 | 88 |
| CCOC(=O)N1CCC2(CC(N3CCC([C@@H]4CCCN4c4ccccc4)CC3)C2)C1 (single isomer, unassigned) [2-77 Isomer 2] | 6.31 | 105 | > 20000 | 14 | 47 | > 20000 | 251 | 51 |  |  |  |  |  |  |
| COC(=O)N1CCC2(CC(N3CCC([C@@H]4CCCN4c4ccccn4)CC3)C2)C1 (single isomer, unassigned) [2-78 Isomer 2] | 126 | 49 | 12600 | 27 | 5 | > 20000 | > 20000 | 11 |  |  |  |  |  |  |
| CCOC(=O)N1CCC2(CC(N3CCC([C@@H]4CCCN4c4ccccn4)CC3)C2)C1 (single isomer, unassigned) [2-79 Isomer 2] | 31.6 | 70 | > 20000 | 2 | 19 | > 20000 | 501 | 37 |  |  |  |  |  |  |
| CCOC(=O)N1CCC2(CC(N3CCC([C@@H]4CCCN4c4ccncc4)CC3)C2)C1 (single isomer, unassigned) [2-80 Isomer 2] | 20 | 107 | > 20000 | 16 | 18 | > 20000 | 126 | 98 |  |  |  |  |  |  |
| CCOC(=O)N1CCC2(CC(N3CCC([C@@H]4CCCN4c4nccs4)CC3)C2)C1 (single isomer, unassigned) [2-82 Isomer 2] | 20 | 70 | > 20000 | 1 | 0 | > 20000 | 501 | 52 |  |  |  |  |  |  |
| CCOC(=O)N1CCC2(CC(N3CCC(N4CCC[C@@H]4C(=O)OC)CC3)C2)C1 (single isomer, unassigned) [2-84 Isomer 2] | 20 | 82 | > 20000 |  |  | > 20000 | 251 | 36 |  |  |  |  |  |  |
| CCOC(=O)N1CCC2(CC(N3CCC(N4CC(F)(F)C[C@@H]4C(=O)OC)CC3)C2)C1 (single isomer, unassigned) [2-87 Isomer 2] | 15.8 | 100 | > 20000 | 54 | 3 | > 20000 | 398 | 46 |  |  |  |  |  |  |
| CCOC(=O)N1CCC2(CC(N3CCC(N4CC(F)(F)C[C@@H]4C(=O)NC)CC3)C2)C1 (single isomer, unassigned) [2-88 Isomer 2] | 39.8 | 44 | > 20000 | 80 | 5 | > 20000 | 316 | 25 |  |  |  |  |  |  |
| CCOC(=O)N1CCC2(CC(N3CCC(N4CC(F)(F)C[C@@H]4C(=O)N(C)C)CC3)C2)C1 (single isomer, unassigned) [2-89 Isomer 2] | 200 | 102 | > 20000 | 68 | 8 | > 20000 | 6310 | 37 |  |  |  |  |  |  |
| CCOC(=O)N1CCC2(CC(N3CCC(N4CC(F)(F)C[C@@H]4C(N)=O)CC3)C2)C1 (single isomer, unassigned) [2-90 Isomer 2] | 12.6 | 53 | > 20000 | 4 | 1 | > 20000 | 158 | 54 |  |  |  |  |  |  |
| CCOC(=O)N1CCC2(CC(N3CCC(N4CC(F)(F)C[C@@H]4C(=O)NOC)CC3)C2)C1 (single isomer, unassigned) [2-91 Isomer 2] | 79.4 | 67 | > 20000 | 12 | 10 | > 20000 | 501 | 40 |  |  |  |  |  |  |
| CCOC(=O)N1CCC2(CC(N3CCC(N4CC(F)(F)C[C@@H]4C(=O)N(C)OC)CC3)C2)C1 (single isomer, unassigned) [2-92 Isomer 2] | 31.6 | 82 | > 20000 | 2 | 5 | > 20000 | 3160 | 50 |  |  |  |  |  |  |
| CCOC(=O)N1CCC2(CC(N3CCC(N4CCC[C@]4(C)C(=O)OC)CC3)C2)C1 (single isomer, unassigned) [2-95 Isomer 2] | 63.1 | 49 | > 20000 | 16 | 9 | > 20000 | > 20000 | 19 |  |  |  |  |  |  |
| CCOC(=O)N1CCC2(CC(N3CCC(N4CCCC45CCOC5=O)CC3)C2)C1 (single isomer, unassigned) [2-96 Isomer 2, ethyl 2-[4-(6-oxo-7-oxa-1-azaspiro[4.4]non-1-yl)piperidin-1-yl]-6-azaspiro[3.4]octane-6-carboxylate] | 126 | 63 | > 20000 | 1 | 5 | > 20000 | > 20000 | 2 |  |  |  |  |  |  |
| CCOC(=O)N1CCC2(CC(N3CCC(N4CSC[C@@H]4C(=O)OC)CC3)C2)C1 (single isomer, unassigned) [2-97 Isomer 2] | 39.8 | 37 | > 20000 | 3 | 3 | > 20000 | > 20000 | 5 |  |  |  |  |  |  |
